Source: ChEMBL document CHEMBL1201862, “PubChem BioAssay data set” (2004)
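Tested at 5 concentrations; 48 h exposure; 96-well plates; endpoints linearly interpolated, else capped at highest concentration. Abbreviation: GI50, concentration required for 50% inhibition of growth.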 Activity calls are given as the source filed them. Rule as the data show it: active = GI50 up to about 1.1 µM and inactive = higher.

Legend:
Test in all cases: DTP human tumour cell line panel, 48 h
NCI-H522 = tested on: NCI-H522
PC-3 = tested on: PC-3
A549 = tested on: A549
EKVX = tested on: EKVX
OVCAR-4 = tested on: OVCAR-4
SF-295 = tested on: SF-295
SNB-75 = tested on: SNB-75
SK-OV-3 = tested on: SK-OV-3
UACC-257 = tested on: UACC-257
MDA-MB-231 = tested on: MDA-MB-231
MDA-N = tested on: MDA-N
SN12C = tested on: SN12C
MOLT-4 = tested on: MOLT-4
COLO 205 = tested on: COLO 205
OVCAR-8 = tested on: OVCAR-8
SR = tested on: SR
HCT-116 = tested on: HCT-116
Malme-3M = tested on: Malme-3M
T47D = tested on: T47D

Measured: GI50

O=C(/C=C\c1ccc(-c2ccccc2)cc1)c1cccs1
inactive: NCI-H522 3.87 µM | PC-3 > 100 µM | A549 > 79.6 µM | EKVX 53 µM | OVCAR-4 > 54.2 µM | SF-295 29.7 µM | SNB-75 28.6 µM | SK-OV-3 64.9 µM | UACC-257 > 100 µM | MDA-MB-231 48.5 µM | MDA-N 7.89 µM | SN12C 7.45 µM | MOLT-4 3.1 µM | COLO 205 > 39.2 µM | OVCAR-8 6.44 µM | SR 2.7 µM | HCT-116 27.4 µM

Nc1c(Cl)ncnc1NCC1(CO)CCC1
inactive: NCI-H522 > 100 µM | PC-3 > 100 µM | A549 > 100 µM | EKVX 90.4 µM | OVCAR-4 > 100 µM | SF-295 > 100 µM | SNB-75 > 100 µM | UACC-257 63.4 µM | MDA-MB-231 > 100 µM | MDA-N > 100 µM | SN12C > 100 µM | MOLT-4 > 100 µM | COLO 205 > 100 µM | Malme-3M > 100 µM | OVCAR-8 > 100 µM | SR > 100 µM | HCT-116 > 100 µM

CCN(CC)C(c1ccc(N(C)C)cc1)C(c1ccc(N(C)C)cc1)N(CC)CC (centres undefined)
inactive: NCI-H522 > 7.29 µM | A549 > 72.9 µM | EKVX > 72.9 µM | OVCAR-4 12.9 µM | SF-295 39.2 µM | SNB-75 14.2 µM | SK-OV-3 > 72.9 µM | UACC-257 36.6 µM | SN12C > 72.9 µM | MOLT-4 30.3 µM | COLO 205 43.3 µM | Malme-3M 17 µM | OVCAR-8 > 72.9 µM | HCT-116 35.2 µM

Cc1ccc(S(=O)(=O)Oc2nc3ccccc3nc2N(S(=O)(=O)c2ccc(C)cc2)S(=O)(=O)c2ccc(C)cc2)cc1
inactive: NCI-H522 74 µM | PC-3 38.4 µM | A549 85.1 µM | EKVX 30.3 µM | SF-295 30.3 µM | SNB-75 37.2 µM | SK-OV-3 > 100 µM | UACC-257 61.1 µM | MDA-MB-231 71.6 µM | MDA-N 45 µM | SN12C 44 µM | MOLT-4 47.4 µM | COLO 205 > 100 µM | Malme-3M 49.9 µM | OVCAR-8 52.2 µM | HCT-116 36.3 µM

CCOC(=O)CCC(NC(=O)Cc1ccc(Oc2nc3ccccc3nc2-c2cccs2)cc1)C(=O)OCC (centres undefined)
inactive: NCI-H522 52 µM | PC-3 80.2 µM | A549 7.19 µM | EKVX 26.1 µM | OVCAR-4 13.5 µM | SF-295 40.9 µM | UACC-257 > 100 µM | MDA-MB-231 4.08 µM | SN12C 8.89 µM | MOLT-4 > 100 µM | COLO 205 > 100 µM | Malme-3M 22.7 µM | OVCAR-8 1.82 µM | SR > 100 µM | HCT-116 6.15 µM

O=C(NNC(c1ccccc1)C(F)(F)F)c1ccncc1 (centres undefined)
inactive: NCI-H522 > 100 µM | PC-3 > 100 µM | A549 > 100 µM | EKVX > 100 µM | OVCAR-4 > 100 µM | SF-295 > 100 µM | SNB-75 > 100 µM | UACC-257 > 100 µM | MDA-MB-231 > 100 µM | SN12C > 100 µM | MOLT-4 > 100 µM | COLO 205 > 100 µM | Malme-3M > 100 µM | OVCAR-8 > 100 µM | SR > 100 µM | HCT-116 > 100 µM

Oc1c(-c2ccccc2)sc2ccccc12
inactive: NCI-H522 27.9 µM | PC-3 18.7 µM | A549 31.9 µM | EKVX 24.9 µM | OVCAR-4 37.9 µM | SF-295 19.5 µM | T47D 11 µM | SNB-75 12.4 µM | UACC-257 25.2 µM | MDA-MB-231 7.55 µM | MOLT-4 24.7 µM | COLO 205 13 µM | Malme-3M 22.1 µM | OVCAR-8 31.6 µM | SR 7.5 µM | HCT-116 18.7 µM

COC(=O)CCN(CCC(=O)OC)C1CC1
inactive: A549 > 100 µM | EKVX > 100 µM | OVCAR-4 > 100 µM | SF-295 > 100 µM | T47D > 100 µM | SNB-75 > 100 µM | SK-OV-3 > 100 µM | UACC-257 > 100 µM | MDA-MB-231 > 100 µM | SN12C > 100 µM | MOLT-4 > 100 µM | COLO 205 > 100 µM | Malme-3M > 100 µM | OVCAR-8 > 100 µM | SR > 100 µM | HCT-116 > 100 µM

COc1ccc2c(c1)C1c3ccccc3CCN1CCC2 (centres undefined)
inactive: NCI-H522 28.4 µM | PC-3 29.2 µM | A549 51.2 µM | EKVX > 100 µM | OVCAR-4 > 100 µM | SF-295 23.8 µM | T47D > 100 µM | SNB-75 19.3 µM | SK-OV-3 36.6 µM | UACC-257 39.6 µM | MDA-MB-231 35.8 µM | SN12C 71.1 µM | MOLT-4 35.6 µM | COLO 205 44.7 µM | OVCAR-8 54.5 µM | SR 32.2 µM | HCT-116 32.1 µM

CN(/N=C\c1ccc2ccccc2c1)C1=NCCN1
inactive: NCI-H522 15.7 µM | A549 15.8 µM | EKVX 19.8 µM | OVCAR-4 20.8 µM | SF-295 14.4 µM | T47D 26.2 µM | SNB-75 10.6 µM | SK-OV-3 35.8 µM | UACC-257 14.8 µM | MDA-MB-231 16.4 µM | MOLT-4 14.7 µM | COLO 205 15.3 µM | Malme-3M 15.6 µM | OVCAR-8 30.3 µM | SR 17.3 µM | HCT-116 15.8 µM

C(=C\c1cc[n+](CCc2ccccc2)cc1)/c1ccccc1
inactive: NCI-H522 14.7 µM | PC-3 15.2 µM | A549 5.64 µM | EKVX 56.9 µM | OVCAR-4 9.04 µM | SF-295 24.9 µM | T47D 5.58 µM | SNB-75 24 µM | SK-OV-3 18.6 µM | UACC-257 4.25 µM | MDA-MB-231 12.6 µM | SN12C 4.02 µM | MOLT-4 12.9 µM | COLO 205 5.73 µM | Malme-3M 11.2 µM | OVCAR-8 3.86 µM | HCT-116 11.3 µM

c1ccc2c(c1)[n-]n1c3ccc4nonc4c3n[n+]21
inactive: NCI-H522 > 100 µM | PC-3 > 100 µM | A549 > 100 µM | EKVX > 100 µM | OVCAR-4 > 100 µM | SF-295 > 100 µM | SNB-75 56.1 µM | UACC-257 > 100 µM | MDA-MB-231 > 100 µM | MDA-N > 100 µM | SN12C > 100 µM | MOLT-4 > 100 µM | COLO 205 > 100 µM | Malme-3M > 100 µM | OVCAR-8 > 100 µM | SR > 100 µM | HCT-116 > 100 µM
